Tested on: Pseudomonas aeruginosa PAM1001
Assay: checkerboard assay (broth microdilution): levofloxacin MIC in presence of efflux pump inhibitor
Format: cell-based
Summary of the method: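 Reduction of levofloxacin MIC by an efflux pump inhibitor measured against Pseudomonas aeruginosa PAM1001. Each microdilution well held a unique combination of levofloxacin and inhibitor (max 40 μg/mL) in MHB, inoculum 5×10^5 CFU/mL. Readout after 20 h, 35° C: OD650 plus visual inspection.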

Molecule | Levofloxacin MIC Against P. aerugiuosa PAM1001 in Presence of Efflux Pump Inhibitor (EPI), Minimum Inhibitory Concentration (EPI Conc. 0 μg/mL) | Levofloxacin MIC Against P. aerugiuosa PAM1001 in Presence of Efflux Pump Inhibitor (EPI), Minimum Inhibitory Concentration (EPI Conc. 0.625 μg/mL) | Levofloxacin MIC Against P. aerugiuosa PAM1001 in Presence of Efflux Pump Inhibitor (EPI), Minimum Inhibitory Concentration (EPI Conc. 1.25 μg/mL) | Levofloxacin MIC Against P. aerugiuosa PAM1001 in Presence of Efflux Pump Inhibitor (EPI), Minimum Inhibitory Concentration (EPI Conc. 2.5 μg/mL) | Levofloxacin MIC Against P. aerugiuosa PAM1001 in Presence of Efflux Pump Inhibitor (EPI), Minimum Inhibitory Concentration (EPI Conc. 5 μg/ mL) | Levofloxacin MIC Against P. aerugiuosa PAM1001 in Presence of Efflux Pump Inhibitor (EPI), Minimum Inhibitory Concentration (EPI Conc. 10 μg/mL) | Levofloxacin MIC Against P. aerugiuosa PAM1001 in Presence of Efflux Pump Inhibitor (EPI), Minimum Inhibitory Concentration (EPI Conc. 20 μg/mL) | Levofloxacin MIC Against P. aerugiuosa PAM1001 in Presence of Efflux Pump Inhibitor (EPI), Minimum Inhibitory Concentration (EPI Conc. 40 μg/mL) | MIC (Pseudomonas aeruginosa, PAM1001, read-out: MIC of levofloxacin against P. aeruginosa PAM1001)
NCCC(=O)N[C@H]1CN[C@H](C(=O)N[C@H](CCc2ccccc2)C(=O)Nc2cnc3ccccc3c2)C1 [Compound M6, (2S,4R)-4-[3-(Aminopropionamido])-N-[(1R)-3-phenyl-1-(3-quinolylcarbamoyl)propyl]-2-pyrrolidinecarboxamide] | 4 µg/mL | 4 µg/mL | 4 µg/mL | 4 µg/mL | 4 µg/mL | 2 µg/mL | 0.06 µg/mL | 0.015 µg/mL | 
C[C@H]1COc2c(N3CCN(C)CC3)c(F)cc3c(=O)c(C(=O)O)cn1c23 [levofloxacin, reference compound] |  |  |  |  |  |  |  |  | 4 µg/mL
(2R,4S)-4-(2-Aminoacetamideo)-N-(2-methylpropyl)-N-(7-ethyl-3-quinolylcarbamoyl)ethyl]-2-pyrrolidinecarboxamide [Compound M44] | 4 µg/mL | 4 µg/mL | 4 µg/mL | 4 µg/mL | 1 µg/mL | 0.06 µg/mL | 0.015 µg/mL | 0.03 µg/mL | 
NCC(=O)N[C@@H]1CN[C@@H](C(=O)NC(Cc2ccccc2)C(=O)Nc2cnc3ccccc3c2)C1 (stereo partly drawn) [Compound M41, (2R,4S0-4-(2-Aminoacetamideo)-N-(2-phenylethyl)-N-(3-quinolylcarbamoyl)ethyl]-2-pyrrolidinecarboxamide] | 4 µg/mL | 4 µg/mL | 2 µg/mL | 2 µg/mL | 0.25 µg/mL | 0.008 µg/mL | 0.008 µg/mL | 0.008 µg/mL | 
COc1cc(C)c2ncc(NC(=O)[C@@H](CCc3ccccc3)NC(=O)[C@@H]3C[C@@H](NC(=O)CN)CN3)cc2c1 [Compound M22] | 4 µg/mL | 4 µg/mL | 4 µg/mL | 4 µg/mL | 4 µg/mL | 0.50 µg/mL | 0.03 µg/mL | 0.015 µg/mL | 
CC(C)(C)c1ccc2ncc(NC(=O)[C@@H]3C[C@@H](OCCN)CN3)cc2c1 [Compound M92, (2S,4R)-4-(2-Aminoethyloxy)-N-(6-(1,1-dimethyl)ethyl-3-quinolyl)-2-pyrrolidinecarboxamide] | 4 µg/mL | 4 µg/mL | 4 µg/mL | 4 µg/mL | 4 µg/mL | 2 µg/mL | 0.06 µg/mL | 0.008 µg/mL | 
CCc1ccc2ncc(NC(=O)[C@@H](Cc3ccc(O)cc3)NC(=O)[C@H]3C[C@H](CN)CN3)cc2c1 [Compound M25, (2R,4R)-4-(Amiomethyl)-N-[(1R)-2-(4-hydroxyphenyl)-1-(6-ethyl-3-quinolylcarbamoyl)ethyl]-2-pyrrolidinecarboxamide] | 4 µg/mL | 4 µg/mL | 4 µg/mL | 4 µg/mL | 4 µg/mL | 0.5 µg/mL | 0.015 µg/mL |  | 
NC[C@@H]1CN[C@@H](COc2ccc3ccccc3n2)C1 [Compound M71, (2R,4R)-4-(Aminomethyl)-2 (2-quiolyloxymethyl)pyrrolidne] | 4 µg/mL | 4 µg/mL | 4 µg/mL | 4 µg/mL | 4 µg/mL | 4 µg/mL | 2 µg/mL | 0.5 µg/mL | 
NCC(=O)N[C@H]1CN[C@H](c2nc3ccccc3n2CCc2ccccc2)C1 [Compound M75, (2S,4R)-4-(2-Aminoacetamido)-2-(1-(2-phenyl)ethyl-2-benzimidazolyl)pyrrolidine] | 4 µg/mL | 4 µg/mL | 4 µg/mL | 4 µg/mL | 4 µg/mL | 4 µg/mL | 1 µg/mL | 0.03 µg/mL | 
NCC(=O)N[C@H]1CN[C@H](C(=O)N[C@@H](CCc2ccccc2)c2nc3ccccc3o2)C1 [Compound M85, (2S,4R)-4-(2-Aminoacetamido)-N-[(1S)-1-(2-benzoxazoiyl)-3-phenylpropyl]-2-pyrrolidinecarboxamide] | 4 µg/mL | 4 µg/mL | 4 µg/mL | 4 µg/mL | 4 µg/mL | 2 µg/mL | 0.50 µg/mL | 0.03 µg/mL | 
